Measurements from publication PMC5713249, “PeaTAR1B: Characterization of a Second Type 1 Tyramine Receptor of the American Cockroach, Periplaneta americana” (International Journal of Molecular Sciences, 2017).

Tests used:
[1] = target: T1, PeaTAR1B (PeaTAR1B-HA) (Periplaneta americana, UniProt A0A239QQ38); experiment: attenuation of NKH 477-stimulated cAMP, CNG channel / Fluo-4 Ca2+ fluorescence in HEK […] flpTM cells; type: cell-based
T1 construct: stably expressed in HEK 293 flpTM cells
T1 sequence (A0A239QQ38 1-481): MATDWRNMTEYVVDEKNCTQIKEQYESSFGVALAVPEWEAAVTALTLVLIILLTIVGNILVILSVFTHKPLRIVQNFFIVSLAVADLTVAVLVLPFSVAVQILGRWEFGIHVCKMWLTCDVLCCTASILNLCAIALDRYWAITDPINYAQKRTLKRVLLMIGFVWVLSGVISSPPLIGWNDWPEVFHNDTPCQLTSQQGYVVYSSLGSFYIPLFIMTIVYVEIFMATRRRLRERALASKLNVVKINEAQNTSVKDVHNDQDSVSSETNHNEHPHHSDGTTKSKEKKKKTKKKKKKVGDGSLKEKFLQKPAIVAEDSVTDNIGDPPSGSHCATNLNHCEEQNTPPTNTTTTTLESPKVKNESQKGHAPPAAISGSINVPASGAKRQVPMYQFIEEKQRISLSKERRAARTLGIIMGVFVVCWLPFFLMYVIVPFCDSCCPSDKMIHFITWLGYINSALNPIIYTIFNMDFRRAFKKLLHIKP

[2] = target: T1, PeaTAR1B (PeaTAR1B-HA); experiment: block of tyramine-induced attenuation of NKH 477-stimulated cAMP, CNG channel / Fluo-4 fluorescence in HEK […] flpTM cells; type: cell-based

`NCCc1ccc(O)cc1` [tyramine] gave an EC50 [1] of ~6.3 nM.

Compound `COC(=O)[C@@H]1[C@H]2C[C@H]3c4[nH]c5ccccc5c4CCN3C[C@@H]2CC[C@@H]1O` [yohimbine] has an IC50 [2] of 740 nM.
